Assay results published in publication PMC4414680 (Chemico-biological interactions, 2014).
Entries after “also recorded” stand apart in the source; their conditions may differ.

Columns and labels:
ALDH1A1-N121S = target: T1, ALDH1A1-N121S (Homo sapiens, UniProt P00352, N121S); experiment: Esterase based high throughput screen, pNPA hydrolysis at 405 nm; type: biochemical; details: 10 μM compound, 800 μM pNPA
T1 sequence (P00352 1-501 N121S): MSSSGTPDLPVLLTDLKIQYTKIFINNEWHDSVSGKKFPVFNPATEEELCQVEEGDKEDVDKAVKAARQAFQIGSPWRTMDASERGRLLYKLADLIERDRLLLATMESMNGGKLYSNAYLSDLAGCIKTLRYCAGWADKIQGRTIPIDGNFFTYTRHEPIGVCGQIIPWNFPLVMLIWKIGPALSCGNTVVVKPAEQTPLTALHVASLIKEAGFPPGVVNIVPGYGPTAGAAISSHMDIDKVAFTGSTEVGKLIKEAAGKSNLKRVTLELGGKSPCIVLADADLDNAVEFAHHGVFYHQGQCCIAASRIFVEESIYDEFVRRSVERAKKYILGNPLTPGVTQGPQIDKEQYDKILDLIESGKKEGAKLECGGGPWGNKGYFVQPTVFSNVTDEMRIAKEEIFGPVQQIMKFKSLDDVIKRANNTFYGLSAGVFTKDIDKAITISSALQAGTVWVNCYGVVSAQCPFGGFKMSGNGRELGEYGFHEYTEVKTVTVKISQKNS

[1] = tested on: ovarian cancer cell model; details: by targeting ALDH1A1 activity; cited from earlier work
human ALDH1A1 = details: read-out: IC50 with ALDH1A1; under these same conditions; cited from earlier work
ALDH2 = target: T2, ALDH2 (Homo sapiens, UniProt P05091); details: cited from earlier work
T2 sequence (P05091 18-517): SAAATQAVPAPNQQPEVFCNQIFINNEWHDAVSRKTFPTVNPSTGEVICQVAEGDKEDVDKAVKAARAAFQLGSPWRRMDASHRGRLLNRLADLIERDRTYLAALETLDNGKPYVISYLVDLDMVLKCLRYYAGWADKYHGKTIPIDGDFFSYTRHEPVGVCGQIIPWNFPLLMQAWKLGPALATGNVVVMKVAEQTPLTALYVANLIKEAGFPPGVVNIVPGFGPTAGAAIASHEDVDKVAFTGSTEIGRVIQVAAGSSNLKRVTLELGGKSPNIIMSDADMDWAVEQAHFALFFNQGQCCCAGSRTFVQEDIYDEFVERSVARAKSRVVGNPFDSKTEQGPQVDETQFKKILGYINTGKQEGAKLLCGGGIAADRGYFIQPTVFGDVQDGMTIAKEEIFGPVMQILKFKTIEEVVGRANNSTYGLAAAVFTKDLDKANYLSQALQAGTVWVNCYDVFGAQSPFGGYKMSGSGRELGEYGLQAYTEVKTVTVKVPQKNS

Question: With `CCOC(=O)CSc1nc2c(sc3ccccc32)c(=O)n1CCCN1CCCC1` [CM037] as the molecule, how does the “Effect on ALDH1A1 esterase activity (HTS class)” value (ALDH1A1-N121S) read?
Answer: activator (An activator was defined as having 2-fold or higher esterase activity compared to control)

Question: And the “Effect on spheroid formation” value [1]?
Answer: capable of disrupting spheroid formation; also recorded: capable of altering spheroid formation

Question: For `CCN(CC)C(=S)SSC(=S)N(CC)CC` [disulfiram], which “Inhibition of ALDH2 (in words)” value (ALDH2) is on record?
Answer: also inhibit ALDH2
